Measurements published in US9629816B2, “Small molecule therapeutic compounds targeting thioesterase deficiency disorders and methods of using the same” (The United States of America, as represented by the …, priority 2011, dated 2017).

What was measured:
[1] = Solubility in tissue culture media; format: physicochemical
INCL fibroblasts = experiment: MTT viability of cultured INCL fibroblasts; format: cell-based, human; conditions: 48 hours of treatment; viability as percent of untreated control (FIG. 4A-C)
Protocol: Ten out of the twelve HA-derivative compounds listed in Table 1 were tested to determine whether they adversely affected the viability of cultured cells from INCL patients. […] Briefly, following treatment with HA-derivatives INCL cells were incubated with Thiazolyl Blue Tetrazolium […] for 4 hours at 37° C. Formazan crystals thus formed were dissolved in acidified isopropanol and absorption was measured at 570 nm. Viability was expressed as percent of untreated control.
Briefly, normal fibroblasts (GM 00498) were obtained from the Coriell Institute of Medical Research, USA. PPT1-deficient INCL fibroblasts were isolated from skin biopsy samples of INCL patients admitted to an ongoing clinical protocol (#01-CH-0086) approved by the Institutional Review Board (IRB) of the National Institute of Child Health and Human Development (NICHD) at the National Institute of Health (NIH). […] The fibroblasts were cultured in the presence or absence of varying concentrations of each of the HA-derivatives for 48 hours, after which the viability of the cells was determined using the MTT-Cell Viability Assay by T. Mossman, (Rapid colorimetric assay for cellular growth and survival. J. Immunol. Method. 65 (1983) 55-63).

[2] = Cleavage of thioester linkage in [14C]palmitoyl-CoA, release of free [14C]palmitate (TLC, autoradiography); format: biochemical; conditions: varying concentrations; various incubation times; [14C]palmitate production
Protocol: It has been reported that thioester linkages in s-acylated proteins are labile, and that compounds having nucleophilic properties are able to disrupt such linkages. Thus, the ability of derivatives of hydroxylamine to disrupt thioester linkages in s-acylated proteins was tested. Twelve HA-derivatives, described in Table 1, were screened for their ability to cleave thioester linkage in [^14C]palmitoyl˜CoA (a model thioester substrate of PPT1), mediating the release of free [^14C]palmitic acid, a process depicted in FIG. 2. […] [^14C]-palmitoyl-CoA was incubated for 1 hour with each of the HA derivatives and the reaction mixture was resolved by thin layer chromatography (TLC) followed by autoradiography. The free [^14C]-palmitate bands were visible and quantitated by densitometric analysis of the bands.

Structure (SMILES)	solubility in tissue culture media [1]	dose- and time-dependence of thioester linkage cleavage in [14C]palmitoyl-CoA [2]	further results
ON(Cc1ccccc1)Cc1ccccc1 [N,N-dibenzylhydroxylamine, N,N-Dibenzylhydroxylamine]	insoluble in tissue culture media	–	–
O=C(c1ccccc1)N(O)c1ccccc1 [N-Benzoyl-N-phenyl hydroxylamine]	–	–	toxicity / viability of INCL cells (MTT) (INCL fibroblasts): all ten compounds except N-Benzoyl-N-phenyl hydroxylamine are non-toxic
CC(ON(C(c1ccccc1)C(C)C)C(C)(C)C)c1ccc(CCl)cc1 (centres unmarked) [N-tert-Butyl-O-[1-[4-(chloromethyl)phenyl]ethyl]-N-(2-methyl-1-phenylpropyl)hydroxylamine]	insoluble in tissue culture media	–	–
ONCc1ccccc1 [benzyl-HA, N-Benzylhydroxylamine]	–	cleaved the thioester linkage in a dose-dependent and time-dependent manner	–
CNO [methyl-HA, N-Methylhydroxylamine]	–	cleaved the thioester linkage in a dose-dependent and time-dependent manner	–
